Patent US7615361B2, “Toxicity screening methods” (Ceetox, Inc., priority 2006, dated 2009)

How the values were obtained:
H4IIE cells = assay: Cell number (propidium iodide); type: cell-based, rat; details: rat, 24 h
Procedure, shortened: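 Rat hepatoma H4IIE cells exposed to compound in complete medium, then lysed with Triton X-100 containing propidium iodide; fluorescence read at 540/610 nm. Blank-subtracted RFU expressed as percent of untreated control cells, means of n=3-7.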

rat cardiomyocytes = assay: Intracellular total glutathione (GSH); type: cell-based; details: rat cardiomyocytes, after 3 hr
Procedure, shortened: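 Intracellular total glutathione serves as an oxidative-stress marker in neonatal rat cardiomyocytes exposed to compound in vitro. Cells were harvested for biochemical analysis, and values are means of each exposure group (n=3-7).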

[1] = system: H4IIE tumor cells, NRK cells, rat primary hepatocytes; assay: Anti-tumor screen in three rat cell types; type: cell-based
Description: In the Anti-tumor screen of the present invention, at least three different cell types are utilized: (1) tumor derived cells, (2) proliferating cells from normal tissue, and (3) non-proliferating cells from normal tissue. The evaluation of anti-tumor agents in multiple cell types provides information on mechanism-based toxicity versus efficacy.
The anti-tumor agent can be evaluated in a toxicity screen of key biochemical functions (as described in detail herein above), with emphasis placed on cell proliferation assays as well as biochemical function and cell viability. Comparisons can then be made to quantitative markers in the concentration response curves constructed with the toxicity data.
It is hypothesized to act through mitochondrial toxicity as well as apoptosis.

human hepatocytes = assay: Caspase 3 activity (apoptosis); type: cell-based; details: 24 HR
Description: Caspase 3 Procedure: Caspase 3 activity was determined using a caspase substrate (DEVD, Asp-Glu-Val-Asp) labeled with a fluorescent molecule, 7-Amino4-methylcoumarin (AMC). Caspase 3 cleaves the tetrapeptide between D and AMC, thus releasing the fluorogenic […] AMC. Following the test article exposure to cells in 96-well plates, medium was aspirated from plates and PBS added to each well. Plates were stored at −80° C. to lyse cells and store samples until further analysis. On the day of analysis, plates were removed from freezer and thawed. Caspase buffer with fluorescent substrate was added to each well and incubated at room temperature for 1 hr. AMC release was measured in a spectrofluorometer at an excitation wavelength of 360 nm and an emission wavelength of 460 nm. Values are expressed as relative fluorescent units (RFU).
Caspase Activity: After sample plates were completely thawed, the caspase substrate buffer mix was added to each plate. Plates were incubated at room temperature for 1hr, shielded from light. Plates were read using a in a spectrofluorometer at an excitation wavelength of 360 nm and an emission wavelength of 460 nm. Values were expressed as relative fluorescent units (RFU).
The apoptosis data is expressed in Table 2 as a ratio of the magnitude of response versus the exposure concentration that produced the response. […]

[2] = Intracellular total glutathione (GSH); details: human
Description: Intracellular Glutathione (GSH) Levels: Intracellular glutathione levels were determined essentially as described by Griffith (1980) with modifications. At the end of the exposure period, the medium was removed from the cells and metaphosphoric acid (MPA) was added to each well. Plates were then shaken for 5 min at room temperature and stored at −20° C. until needed.
The sample plates were thawed just prior to analysis and centrifuged at >2000×g for at least 2 min. Sample aliquots were removed and transferred to a clean 96-well plate along with appropriate standard curve controls. Sample pH was neutralized just prior to analysis and each well received an aliquot of sodium phosphate reaction buffer containing EDTA, DTNB, NADPH, and glutathione reductase. The plates were mixed for 15-30 min at room temperature and glutathione content was determined calorimetrically with a Packard Fusion or equivalent reader at 415 nm.
Intracellular Glutathione (GSH) Levels: The assay is based on the concept that all GSH is oxidized to GSSG by DTNB reagent. Two molecules of GSH are required to make one molecule of GSSG. Total GSH was determined by reducing GSSG to 2GSH with glutathione reductase. A standard curve was prepared with oxidized glutathione (GSSG) over a range of concentrations. These concentrations are then converted to glutathione equivalents (GSX) essentially by multiplying the GSSG standard concentrations by 2. The amount of GSX expressed as pmoles/well was determined using the standard curve and regression analysis.
The test compound consisted of two parts mixed in a constant ratio of 5:1. The final test mixture consisted of Test mix 1 and Test mix 2, which were received as frozen solutions. The test mixture was tested in a ratio of 5:1 COMP A in five different cell types which included the following: SK-MEL28, human hepatocytes, HUVEC, C32, and NHEM cells. Cells were seeded into 96-well plates and cultured in medium containing 10% bovine serum. Following an equilibration period of 48 hr, the cells were treated with the test compound mix at concentrations of COMP A (μg/mL)=(250:50), (125:25), (25:12.5), (12.5:2.5), (2.5:1.25), (1.25:0.25), and (0.25:0.05) for 24 hr (overnight) at 37° C. in 5% CO2. […] Following an equilibration period of 4 hr, the cells were treated with the test compound mix at concentrations of COMP A (μg/mL)=(250:50), (125:25), (25:12.5), (12.5:2.5), (2.5:1.25), (1.25:0.25), and (0.25:0.05) for 24 hr (overnight) at 37° C. in 5% CO2.
Experimental Protocol: The test compounds were shipped on dry ice for testing. The compounds were stored frozen at −80° C. until needed. Dosing solutions were prepared in complete culture medium. SK-MEL28, human hepatocytes, HUVEC, C32, and NHEM cells were used as the test systems. Cells were seeded into 96-well plates and allowed to equilibrate for approximately 48 hr. Following the equilibration period the cells were exposed to the test compound mix at concentrations of COMP A (μg/mL)=(250:50), (125:25), (25:12.5), (12.5:2.5), (2.5:1.25), (1.25:0.25), and (0.25:0.05). Solubility was determined by Nephalometry techniques immediately after dosing and prior to harvesting the cells at 24 hr. Following the exposure period, the cells or their supernatant (culture medium) were analyzed for changes in cell proliferation, membrane leakage, mitochondrial function, oxidative stress, and apoptosis. The resultant exposure concentration response curves were graphed and analyzed for determining the concentration that produced a half maximal response or TC50.

## COc1cccc2c1C(=O)c1c(O)c3c(c(O)c1C2=O)C[C@@](O)(C(=O)CO)C[C@@H]3O[C@H]1C[C@H](N)[C@H](O)[C@H](C)O1 [ADRIAMYCIN, Adriamycin]
H4IIE cells
  CC50: 9 µM
Rat cardiomyocytes
  cellular GSH depleted: More than 90%
[1]
  sensitivity of cell types in the anti-tumor screen: toxic to all of the cells tested

## CC[C@@]1(O)C(=O)OCc2c1cc1n(c2=O)Cc2cc3ccccc3nc2-1 [CAMPTOTHECIN, Camptothecin]
Human hepatocytes
  Caspase 3 Activity (Index/Dose): Index: 3 (400-600 = 3)
Human hepatocytes; controls (μM section)
  Caspase 3 Activity (Index/Dose): Dose: 100
[2]; C32 cells
  CC50 at 24 h: 1 µM
[2]; HUVEC cells
  CC50 at 24 h: 1 µM
[2]; human hepatocytes
  CC50 at 24 h: 44 µM
